Results from PubChem BioAssay (NCI).
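Five compound concentrations were applied to cells in 96-well plates for 48 hours; endpoints were derived by simple linear interpolation of the resulting dose-response curve. GI50 = concentration required for 50% inhibition of growth. TGI is the concentration that stops growth completely.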

What was measured:
Test in all cases: NCI anticancer screen, dose series, 48 h
EKVX NSCLC = system: EKVX NSCLC
HT29 colon = system: HT29 colon
CAKI-1 renal = system: CAKI-1 renal
RPMI-8226 leukemia = system: RPMI-8226 leukemia
MCF7 breast = system: MCF7 breast
COLO 205 colon = system: COLO 205 colon
NCI/ADR-RES ovarian = system: NCI/ADR-RES ovarian
SNB-19 CNS = system: SNB-19 CNS
HOP-92 NSCLC = system: HOP-92 NSCLC
UACC-257 melanoma = system: UACC-257 melanoma
NCI-H522 lung = system: NCI-H522 lung
NCI-H23 lung = system: NCI-H23 lung
HCT-116 colon = system: HCT-116 colon
LOX IMVI melanoma = system: LOX IMVI melanoma
UACC-62 melanoma = system: UACC-62 melanoma
NCI-H226 lung = system: NCI-H226 lung
SF-268 CNS = system: SF-268 CNS
HOP-62 NSCLC = system: HOP-62 NSCLC
NCI-H460 lung = system: NCI-H460 lung
IGROV1 ovarian = system: IGROV1 ovarian
SW-620 colon = system: SW-620 colon
SK-MEL-2 melanoma = system: SK-MEL-2 melanoma
A498 renal = system: A498 renal
MALME-3M melanoma = system: MALME-3M melanoma
HCT-15 colon = system: HCT-15 colon
KM12 colon = system: KM12 colon
A549 NSCLC = system: A549 NSCLC
MDA-MB-435 = system: MDA-MB-435
SF-295 CNS = system: SF-295 CNS
MOLT-4 leukemia = system: MOLT-4 leukemia
UO-31 renal = system: UO-31 renal
U251 CNS = system: U251 CNS
BT-549 breast = system: BT-549 breast
ACHN renal = system: ACHN renal
MDA-MB-231 breast = system: MDA-MB-231 breast
DU-145 prostate = system: DU-145 prostate
HS 578T breast = system: HS 578T breast
OVCAR-3 ovarian = system: OVCAR-3 ovarian
HL-60(TB) leukemia = system: HL-60(TB) leukemia
786-0 renal = system: 786-0 renal
T-47D breast = system: T-47D breast
SF-539 CNS = system: SF-539 CNS
K-562 leukemia = system: K-562 leukemia
SNB-75 CNS = system: SNB-75 CNS
OVCAR-4 ovarian = system: OVCAR-4 ovarian
M14 melanoma = system: M14 melanoma
SK-MEL-5 melanoma = system: SK-MEL-5 melanoma
SN12C renal = system: SN12C renal
OVCAR-8 ovarian = system: OVCAR-8 ovarian
SK-OV-3 ovarian = system: SK-OV-3 ovarian
PC-3 prostate = system: PC-3 prostate
RXF 393 renal = system: RXF 393 renal
TK-10 renal = system: TK-10 renal
OVCAR-5 ovarian = system: OVCAR-5 ovarian
CCRF-CEM leukemia = system: CCRF-CEM leukemia
HCC-2998 colon = system: HCC-2998 colon
SK-MEL-28 melanoma = system: SK-MEL-28 melanoma

Cc1cc(N)c2ccccc2[n+]1CCCCCCCCCCNc1cc(C)[n+](CCCCCCCCCC[n+]2c(C)cc(N)c3ccccc32)c2ccccc12
TGI (EKVX NSCLC): 33.7 µM | TGI (HT29 colon): 29 µM | TGI (CAKI-1 renal): > 100 µM | TGI (RPMI-8226 leukemia): 1.52 µM | TGI (MCF7 breast): > 100 µM | TGI (COLO 205 colon): > 100 µM

COc1cc2nc(Nc3cccc(Cl)c3)nc(N)c2cc1OC
GI50 (NCI/ADR-RES ovarian): 7.61 µM | TGI (NCI/ADR-RES ovarian): 33.9 µM | GI50 (SNB-19 CNS): 14.6 µM | TGI (SNB-19 CNS): 28 µM | GI50 (EKVX NSCLC): 12.9 µM | TGI (EKVX NSCLC): 27 µM | GI50 (HOP-92 NSCLC): 2.59 µM | TGI (HOP-92 NSCLC): 14.6 µM | GI50 (UACC-257 melanoma): 2.11 µM | TGI (UACC-257 melanoma): 4.48 µM | GI50 (NCI-H522 lung): 8.44 µM | TGI (NCI-H522 lung): 26.7 µM | GI50 (NCI-H23 lung): 14.2 µM | TGI (NCI-H23 lung): 33.2 µM | GI50 (HCT-116 colon): 2.34 µM | TGI (HCT-116 colon): 6.35 µM | GI50 (LOX IMVI melanoma): 2.45 µM | TGI (LOX IMVI melanoma): 6.14 µM | GI50 (UACC-62 melanoma): 13 µM | TGI (UACC-62 melanoma): 25.7 µM | GI50 (HT29 colon): 3.23 µM | TGI (HT29 colon): 12.4 µM | GI50 (NCI-H226 lung): 16 µM | TGI (NCI-H226 lung): 29.5 µM | GI50 (SF-268 CNS): 6.41 µM | TGI (SF-268 CNS): 19.9 µM | GI50 (HOP-62 NSCLC): 5.81 µM | TGI (HOP-62 NSCLC): 18.3 µM | GI50 (NCI-H460 lung): 4.09 µM | TGI (NCI-H460 lung): 15.5 µM | GI50 (IGROV1 ovarian): 11 µM | TGI (IGROV1 ovarian): 25.4 µM | GI50 (SW-620 colon): 2.68 µM | TGI (SW-620 colon): 7.15 µM | GI50 (SK-MEL-2 melanoma): 8.28 µM | TGI (SK-MEL-2 melanoma): 28.5 µM | GI50 (A498 renal): 6.57 µM | TGI (A498 renal): 20.1 µM | GI50 (MALME-3M melanoma): 2.47 µM | TGI (MALME-3M melanoma): 6.62 µM | GI50 (HCT-15 colon): 2.62 µM | TGI (HCT-15 colon): 10.4 µM | GI50 (KM12 colon): 4.07 µM | TGI (KM12 colon): 15.7 µM | GI50 (A549 NSCLC): 9.89 µM | TGI (A549 NSCLC): 27.3 µM | GI50 (MDA-MB-435): 2.81 µM | TGI (MDA-MB-435): 9.71 µM | GI50 (SF-295 CNS): 4.37 µM | TGI (SF-295 CNS): > 36.3 µM | GI50 (MOLT-4 leukemia): 2.78 µM | TGI (MOLT-4 leukemia): 11.4 µM | GI50 (UO-31 renal): 6.66 µM | TGI (UO-31 renal): 20.9 µM | GI50 (CAKI-1 renal): 12.3 µM | TGI (CAKI-1 renal): 27.9 µM | GI50 (RPMI-8226 leukemia): 2.11 µM | TGI (RPMI-8226 leukemia): 5.34 µM | GI50 (U251 CNS): 3.08 µM | TGI (U251 CNS): 9.96 µM | GI50 (MCF7 breast): 4.32 µM | TGI (MCF7 breast): 17.4 µM | GI50 (BT-549 breast): 13.5 µM | TGI (BT-549 breast): 27.8 µM | GI50 (ACHN renal): 11.4 µM | TGI (ACHN renal): 23.8 µM | GI50 (MDA-MB-231 breast): 4.28 µM | TGI (MDA-MB-231 breast): 14.5 µM | GI50 (DU-145 prostate): 6.74 µM | TGI (DU-145 prostate): 22.8 µM | GI50 (HS 578T breast): 6.05 µM | TGI (HS 578T breast): 31.6 µM | GI50 (OVCAR-3 ovarian): 4.12 µM | TGI (OVCAR-3 ovarian): 12.6 µM | GI50 (HL-60(TB) leukemia): 10.7 µM | TGI (HL-60(TB) leukemia): 39.4 µM | GI50 (786-0 renal): 1.85 µM | TGI (786-0 renal): 3.73 µM | GI50 (T-47D breast): 5.13 µM | TGI (T-47D breast): 24 µM | GI50 (SF-539 CNS): 10.2 µM | TGI (SF-539 CNS): 22.8 µM | GI50 (COLO 205 colon): 1.68 µM | TGI (COLO 205 colon): 3.39 µM | GI50 (K-562 leukemia): 3.67 µM | TGI (K-562 leukemia): > 36.1 µM | GI50 (SNB-75 CNS): 17.4 µM | TGI (SNB-75 CNS): 32.3 µM | GI50 (OVCAR-4 ovarian): 10.7 µM | TGI (OVCAR-4 ovarian): 26.3 µM | GI50 (M14 melanoma): 1.87 µM | TGI (M14 melanoma): 3.73 µM | GI50 (SK-MEL-5 melanoma): 3.27 µM | TGI (SK-MEL-5 melanoma): 11.2 µM | GI50 (SN12C renal): 12 µM | TGI (SN12C renal): 24.3 µM | GI50 (OVCAR-8 ovarian): 6.29 µM | TGI (OVCAR-8 ovarian): 22.6 µM | GI50 (SK-OV-3 ovarian): 18.1 µM | TGI (SK-OV-3 ovarian): 32.7 µM | GI50 (PC-3 prostate): 6.82 µM | TGI (PC-3 prostate): 21 µM | GI50 (RXF 393 renal): 16.9 µM | TGI (RXF 393 renal): 31.3 µM | GI50 (TK-10 renal): 14.2 µM | TGI (TK-10 renal): 37.8 µM | GI50 (OVCAR-5 ovarian): 17.2 µM | TGI (OVCAR-5 ovarian): 35.4 µM | GI50 (CCRF-CEM leukemia): 2.36 µM | TGI (CCRF-CEM leukemia): 7.3 µM | GI50 (HCC-2998 colon): 1.89 µM | TGI (HCC-2998 colon): 3.57 µM | GI50 (SK-MEL-28 melanoma): 1.93 µM | TGI (SK-MEL-28 melanoma): 3.78 µM

CN(C)c1ccc(/C=C/C=c2/c3ccccc3n3c2cc(-c2ccccc2)[n+]3C)cc1
TGI (NCI/ADR-RES ovarian): > 100 µM | TGI (EKVX NSCLC): 1.57 µM | TGI (NCI-H226 lung): 1.82 µM | TGI (HOP-62 NSCLC): 1.19 µM | TGI (A498 renal): 1.23 µM | TGI (MOLT-4 leukemia): 0.724 µM | TGI (CAKI-1 renal): 1.17 µM | TGI (ACHN renal): 1.63 µM | TGI (DU-145 prostate): 1.03 µM | TGI (HL-60(TB) leukemia): 0.509 µM | TGI (K-562 leukemia): > 100 µM | TGI (OVCAR-4 ovarian): 2.11 µM | TGI (PC-3 prostate): 1.17 µM | TGI (RXF 393 renal): 1.62 µM | TGI (CCRF-CEM leukemia): > 100 µM
